≈ marks a conversion by molar mass, not a printed value. Read-outs that look alike come from different tables or passages of the source.
Experiments:
E. coli ATCC 25922 = assay: Broth microdilution MIC/MBC, glycosides with or without polymyxins; assay type: cell-based, Escherichia coli
K. pneumoniae CQ4921 = assay: as above; assay type: cell-based, Klebsiella pneumoniae
E. cloacae CQ1941 = assay: as above; assay type: cell-based
K. pneumoniae CQ1942 = assay: Broth microdilution MIC, glycosides with or without polymyxins; assay type: cell-based, Klebsiella pneumoniae
K. pneumoniae CQ1947 = assay: as above; assay type: cell-based, Klebsiella pneumoniae
A. baumannii CQ4322 = assay: Broth microdilution MIC/MBC, glycosides with or without polymyxins; assay type: cell-based, Acinetobacter baumannii; conditions: for RIS (susceptibility category) / MIC (antibiotic susceptibility profile): antibiotic alone
P. aeruginosa CQ4924 = assay: Broth microdilution MIC, glycosides with or without polymyxins; assay type: cell-based, Pseudomonas aeruginosa; conditions: for RIS (susceptibility category) / MIC (antibiotic susceptibility profile): antibiotic alone
E. coli NCTC 13846 = assay: Broth microdilution MIC/MBC, glycosides with or without polymyxins; assay type: cell-based, Escherichia coli; conditions: antibiotic alone; strain B
Caco-2 cells = assay: Resazurin cell viability assay (cytotoxicity); assay type: cell-based, human; conditions: tested alone (no polymyxin adjuvant); 72 h
Method: (§1) Cytotoxicity of each compound alone or in combination with different polymyxin concentrations was evaluated through the resazurin cell viability assay[49] in human embryonic HEK-293T cells, as well as in human colon adenocarcinoma Caco-2 cells, after a 72-h long incubation period.
(§2) HEK-293T and Caco-2 cells were grown in RPMI 1640 medium (VWR) supplemented with 10% FBS (Biowest), 1% PenStrep (Sigma Aldrich), and 1% glutamine (Biowest) in a humidified incubator at 37 °C with a 5% CO2 atmosphere. Twice a week, the medium was aspirated, the cells were washed with DPBS (VWR), trypsinized with trypsin–EDTA solution (Biowest), and resuspended in fresh culture medium. The dose-dependent effects of each glycoside or glycoside-polymyxin combination were evaluated by the resazurin cell viability assay. Polymyxins (colistin sulfate and PMB sulfate for microbiological assays, European Pharmacopoeia Reference Standards, Sigma-Aldrich) were firstly dissolved in sterilized Mili-Q water to a stock concentration of 1 mg/mL, while glycosides were dissolved in DMSO to a stock concentration of 30 mM. 1.5 × 10^4 cells/well in 96.5 µL of medium were seeded onto 96-well plates and incubated at 37 °C for 24 h. For each compound, ten stock dilutions (with concentrations from 750 to 75 µM) were prepared in fresh medium immediately prior to incubation. 16 µL of each dilution were added to each well so that the final glycoside concentrations ranged from 100 to 10 µM in each row in a final assay volume of 120 µL. In addition, the previously prepared polymyxin stock solutions were diluted in fresh medium, affording new stocks of 8, 4, and 2 µg/mL. The same volume (7.5 µL/well) of PMB or colistin was then added to each row to achieve a final polymyxin concentration of 0.5, 0.25, and 0.125 µg/mL, respectively, regardless of the glycoside concentration. In assays without polymyxin, the same volume (7.5 µL/well) of medium was added. In all assays, the maximum DMSO concentration was 0.33%. After a 72-h incubation at 37 °C, 12 µL of a 0.15 mg/mL resazurin (Sigma-Aldrich) in sterilized Mili-Q water were added to each well, and the plates were left incubating for another 4 h at 37 °C. Resorufin was measured at 570/600 nm, and the percentage of resazurin reduction, corresponding to the cell viability percentage, was calculated according to Eq. (1)[60]. IC50 values were obtained by best fitting the dose-dependent inhibition curves using the Prism 9® software. The results were expressed as the mean ± SD of three independent replicates, with only data from analysis with R^2 > 0.90 being considered.1 %Cellviability=Abssample-Absmediumcontrol/Abscellcontrol-Absmediumcontrol×100

HEK-293T cells = assay: Resazurin cell viability assay (cytotoxicity); assay type: cell-based, human; conditions: tested alone (no polymyxin adjuvant); 72 h
Method: as §1, §2

HEK-293 cells = system: HEK-293 cells; design: method as in PMID 30532748; conditions: polymyxin alone; cited from earlier work
[1] = Escherichia coli, ATCC25922, antibiotic alone, strain A, read-out: MIC (antibiotic susceptibility profile)
[2] = Klebsiella pneumoniae, CQ4921, antibiotic alone, strain C, read-out: MIC (antibiotic susceptibility profile)
[3] = Enterobacter cloacae, CQ1941, antibiotic alone, strain D, read-out: MIC (antibiotic susceptibility profile)
[4] = Klebsiella pneumoniae, CQ1942, antibiotic alone, strain E, read-out: MIC (antibiotic susceptibility profile)
[5] = Klebsiella pneumoniae, CQ1947, antibiotic alone, strain F, read-out: MIC (antibiotic susceptibility profile)

## CC1(C)S[C@@H]2[C@H](NC(=O)[C@H](N)c3ccccc3)C(=O)N2[C@H]1C(=O)O [Ampicillin, reference compound]
E. coli ATCC 25922; [1]
  MIC: 4 µg/mL (≈ 11.4 µM)
K. pneumoniae CQ4921; [2]
  MIC: ≥ 128 µg/mL
E. cloacae CQ1941; [3]
  MIC: ≥ 128 µg/mL
K. pneumoniae CQ1942; [4]
  MIC: ≥ 128 µg/mL
K. pneumoniae CQ1947; [5]
  MIC: ≥ 128 µg/mL
A. baumannii CQ4322; strain G
  RIS (susceptibility category): ERP
P. aeruginosa CQ4924; strain H
  RIS (susceptibility category): ERP

## NCC[C@H](O)C(=O)N[C@@H]1C[C@H](N)[C@@H](O[C@H]2O[C@H](CN)[C@@H](O)[C@H](O)[C@H]2O)[C@H](O)[C@H]1O[C@H]1O[C@H](CO)[C@@H](O)[C@H](N)[C@H]1O [Amikacin, reference compound]
E. coli ATCC 25922; [1]
  MIC: 1 to 2 µg/mL (≈ 1.71 to 3.42 µM)
K. pneumoniae CQ4921; [2]
  MIC: 0.5 to 2 µg/mL (≈ 0.854 to 3.42 µM)
E. cloacae CQ1941; [3]
  MIC: ≥ 128 µg/mL
K. pneumoniae CQ1942; [4]
  MIC: 16 µg/mL (≈ 27.3 µM)
K. pneumoniae CQ1947; [5]
  MIC: 32 µg/mL (≈ 54.6 µM)
A. baumannii CQ4322; strain G
  MIC (antibiotic susceptibility profile): ≥ 128 µg/mL
P. aeruginosa CQ4924; strain H
  MIC (antibiotic susceptibility profile): 4 µg/mL (≈ 6.83 µM)

## CNC(C)C1CCC(N)C(OC2C(N)CC(N)C(OC3OCC(C)(O)C(NC)C3O)C2O)O1 (stereo not shown) [Gentamicin, reference compound]
E. coli ATCC 25922; [1]
  MIC: 0.5 µg/mL (≈ 1.05 µM)
K. pneumoniae CQ4921; [2]
  MIC: 0.25 to 0.5 µg/mL (≈ 0.523 to 1.05 µM)
E. cloacae CQ1941; [3]
  MIC: ≥ 128 µg/mL
K. pneumoniae CQ1942; [4]
  MIC: 1 µg/mL (≈ 2.09 µM)
K. pneumoniae CQ1947; [5]
  MIC: 64 µg/mL (≈ 134 µM)
A. baumannii CQ4322; strain G
  MIC (antibiotic susceptibility profile): 32 to 64 µg/mL
P. aeruginosa CQ4924; strain H
  MIC (antibiotic susceptibility profile): 2 µg/mL (≈ 4.19 µM)
  RIS (susceptibility category): wt

## colistin [reference compound]
E. coli ATCC 25922; agent alone, no adjuvant (polymyxin conc. 0), strain A
  MIC: 0.5 µg/mL
E. coli ATCC 25922; alone
  MICB (MIC of colistin individually): 0.5 µg/mL
E. coli ATCC 25922; antibiotic alone, strain A
  MIC (antibiotic susceptibility profile): 0.5 to 1 µg/mL
E. coli NCTC 13846
  MIC (antibiotic susceptibility profile): 4 µg/mL
K. pneumoniae CQ4921; agent alone, no adjuvant (polymyxin conc. 0), strain C
  MIC: 0.5 µg/mL
K. pneumoniae CQ4921; alone
  MICB (MIC of colistin individually): 0.5 µg/mL
K. pneumoniae CQ4921; antibiotic alone, strain C
  MIC (antibiotic susceptibility profile): 0.125 to 1 µg/mL
E. cloacae CQ1941; agent alone, no adjuvant (polymyxin conc. 0), strain D
  MIC: 0.5 µg/mL
E. cloacae CQ1941; alone
  MICB (MIC of colistin individually): 0.5 µg/mL
E. cloacae CQ1941; antibiotic alone, strain D
  MIC (antibiotic susceptibility profile): 0.125 to 1 µg/mL
K. pneumoniae CQ1942; agent alone, no adjuvant (polymyxin conc. 0), strain E
  MIC: 0.5 µg/mL
K. pneumoniae CQ1942; alone
  MICB (MIC of colistin individually): 0.5 µg/mL
K. pneumoniae CQ1942; antibiotic alone, strain E
  MIC (antibiotic susceptibility profile): 0.125 to 1 µg/mL
K. pneumoniae CQ1947; agent alone, no adjuvant (polymyxin conc. 0), strain F
  MIC: 0.5 µg/mL
K. pneumoniae CQ1947; alone
  MICB (MIC of colistin individually): 0.5 µg/mL
K. pneumoniae CQ1947; antibiotic alone, strain F
  MIC (antibiotic susceptibility profile): 0.125 to 1 µg/mL
A. baumannii CQ4322; agent alone, no adjuvant (polymyxin conc. 0), strain G
  MIC: 0.5 µg/mL
A. baumannii CQ4322; alone
  MICB (MIC of colistin individually): 0.5 µg/mL
A. baumannii CQ4322; strain G
  MIC (antibiotic susceptibility profile): 0.5 to 1 µg/mL
P. aeruginosa CQ4924; agent alone, no adjuvant (polymyxin conc. 0), strain H
  MIC: 1 µg/mL
P. aeruginosa CQ4924; alone
  MICB (MIC of colistin individually): 1 µg/mL
P. aeruginosa CQ4924; strain H
  MIC (antibiotic susceptibility profile): 1 to 2 µg/mL
Caco-2 cells
  IC50: > 115 µg/mL
HEK-293T cells
  IC50: > 115 µg/mL
HEK-293 cells
  IC50: > 1000 µg/mL

## C[C@@H](O)[C@H]1C(=O)N2C(C(=O)O)=C(SCCN=CN)C[C@H]12 [Imipenem, reference compound]
E. coli ATCC 25922; [1]
  MIC: 0.125 to 0.25 µg/mL (≈ 0.418 to 0.835 µM)
K. pneumoniae CQ4921; [2]
  MIC: 4 µg/mL (≈ 13.4 µM)
E. cloacae CQ1941; [3]
  MIC: 16 µg/mL (≈ 53.4 µM)
K. pneumoniae CQ1942; [4]
  MIC: ≥ 128 µg/mL
K. pneumoniae CQ1947; [5]
  MIC: 8 to 16 µg/mL (≈ 26.7 to 53.4 µM)
A. baumannii CQ4322; strain G
  MIC (antibiotic susceptibility profile): 32 to 64 µg/mL
P. aeruginosa CQ4924; strain H
  MIC (antibiotic susceptibility profile): 16 µg/mL (≈ 53.4 µM)

## CC(C)(O/N=C(\C(=O)N[C@@H]1C(=O)N2C(C(=O)[O-])=C(C[n+]3ccccc3)CS[C@H]12)c1csc(N)n1)C(=O)O [Ceftazidime, reference compound]
E. coli ATCC 25922; [1]
  MIC: 0.125 to 0.25 µg/mL (≈ 0.229 to 0.457 µM)
K. pneumoniae CQ4921; [2]
  MIC: 1 µg/mL (≈ 1.83 µM)
E. cloacae CQ1941; [3]
  MIC: ≥ 128 µg/mL
K. pneumoniae CQ1942; [4]
  MIC: ≥ 128 µg/mL
K. pneumoniae CQ1947; [5]
  MIC: ≥ 128 µg/mL
P. aeruginosa CQ4924; strain H
  MIC (antibiotic susceptibility profile): 4 µg/mL (≈ 7.32 µM)

## CC1(C)S[C@@H]2[C@H](NC(=O)[C@H](N)c3ccc(O)cc3)C(=O)N2[C@H]1C(=O)O [Amoxicillin, reference compound]
E. coli ATCC 25922; [1]
  MIC: 4 µg/mL (≈ 10.9 µM)
K. pneumoniae CQ4921; [2]
  MIC: ≥ 128 µg/mL
E. cloacae CQ1941; [3]
  MIC: ≥ 128 µg/mL
K. pneumoniae CQ1942; [4]
  MIC: ≥ 128 µg/mL
K. pneumoniae CQ1947; [5]
  MIC: ≥ 128 µg/mL
A. baumannii CQ4322; strain G
  RIS (susceptibility category): ERP
P. aeruginosa CQ4924; strain H
  RIS (susceptibility category): ERP

Source: PMC10817917, “Alkyl deoxyglycoside-polymyxin combinations against critical priority carbapenem-resistant gram-negative bacteria” (Scientific Reports, 2024)
